From patent US20160113282A1 (HONBU SANKEI CO., LTD., priority 2013, published 2016)
Where two headings read alike, the source gives them in different places.

How the values were obtained:
[1] = test system: feline calicivirus F4 strain; experiment: In vitro test in test tube, feline caliciviruses (Example 11); assay type: cell-based
[2] = test system: influenza virus Type A Aichi strain A/Aichi/68 (H3N2); assay type: cell-based; details: 10 ppm; for ratio of the amount of residual infectious viruses: 30 minutes at 25° C., PBS = 1.00
Vero cells = experiment: Impairment in colony formation capability; assay type: cell-based, African green monkey; details: phosphoric acid buffer (FIG. 7)

SMILES: OCl [Sodium hypochlorite aqueous solution, sodium hypochlorite]
- number of infectious viruses ([1]; pH 5.5, 400 ppm, contact 10 min): <2.0 log CPU/mL
- number of infectious viruses ([1]; pH 6.5, 25 ppm, contact 0 min): 6.1 ± 2.1 log CPU/mL
- number of infectious viruses ([1]; pH 6.5, 50 ppm, contact 0 min): 6.1 ± 2.1 log CPU/mL
- number of infectious viruses ([1]; pH 6.5, 100 ppm, contact 0 min): 6.1 ± 2.1 log CPU/mL
- number of infectious viruses ([1]; pH 6.5, 200 ppm, contact 0 min): 6.1 ± 2.1 log CPU/mL
- number of infectious viruses ([1]; pH 6.5, 200 ppm, contact 5 min): 3.3 ± 2.9 log CPU/mL
- number of infectious viruses ([1]; pH 6.5, 200 ppm, contact 10 min): <2.0 log CPU/mL
- number of infectious viruses ([1]; pH 6.5, 400 ppm, contact 0 min): 6.1 ± 2.1 log CPU/mL
- number of infectious viruses ([1]; pH 6.5, 400 ppm, contact 1 min): <2.0 log CPU/mL
- number of infectious viruses ([1]; pH 6.5, 400 ppm, contact 5 min): <2.0 log CPU/mL
- number of infectious viruses ([1]; pH 6.5, 400 ppm, contact 10 min): <2.0 log CPU/mL
- number of infectious viruses ([1]; pH 7.5, 25 ppm, contact 0 min): 5.2 ± 2.6 log CPU/mL
- number of infectious viruses ([1]; pH 7.5, 50 ppm, contact 0 min): 5.2 ± 2.6 log CPU/mL
- number of infectious viruses ([1]; pH 7.5, 50 ppm, contact 5 min): 4.4 ± 1.8 log CPU/mL
- number of infectious viruses ([1]; pH 7.5, 50 ppm, contact 10 min): <2.0 log CPU/mL
- number of infectious viruses ([1]; pH 7.5, 100 ppm, contact 0 min): 5.2 ± 2.6 log CPU/mL
- number of infectious viruses ([1]; pH 7.5, 100 ppm, contact 5 min): 3.4 ± 1.8 log CPU/mL
- number of infectious viruses ([1]; pH 7.5, 100 ppm, contact 10 min): <2.0 log CPU/mL
- number of infectious viruses ([1]; pH 7.5, 200 ppm, contact 0 min): 5.2 ± 2.6 log CPU/mL
- number of infectious viruses ([1]; pH 7.5, 200 ppm, contact 1 min): 2.5 ± 1.8 log CPU/mL
- number of infectious viruses ([1]; pH 7.5, 200 ppm, contact 5 min): <2.0 log CPU/mL
- number of infectious viruses ([1]; pH 7.5, 200 ppm, contact 10 min): <2.0 log CPU/mL
- number of infectious viruses ([1]; pH 7.5, 400 ppm, contact 0 min): 5.2 ± 2.6 log CPU/mL
- number of infectious viruses ([1]; pH 7.5, 400 ppm, contact 1 min): <2.0 log CPU/mL
- number of infectious viruses ([1]; pH 7.5, 400 ppm, contact 5 min): <2.0 log CPU/mL
- number of infectious viruses ([1]; pH 7.5, 400 ppm, contact 10 min): <2.0 log CPU/mL
- number of infectious viruses ([1]; pH 8.5, 25 ppm, contact 0 min): 4.7 ± 2.8 log CPU/mL
- number of infectious viruses ([1]; pH 8.5, 50 ppm, contact 0 min): 4.7 ± 2.8 log CPU/mL
- number of infectious viruses ([1]; pH 8.5, 50 ppm, contact 1 min): 4.6 ± 3.2 log CPU/mL
- number of infectious viruses ([1]; pH 8.5, 50 ppm, contact 5 min): 3.5 ± 2.1 log CPU/mL
- number of infectious viruses ([1]; pH 8.5, 50 ppm, contact 10 min): <2.0 log CPU/mL
- number of infectious viruses ([1]; pH 8.5, 100 ppm, contact 0 min): 4.7 ± 2.8 log CPU/mL
- number of infectious viruses ([1]; pH 8.5, 100 ppm, contact 1 min): 3.7 ± 2.6 log CPU/mL
- number of infectious viruses ([1]; pH 8.5, 100 ppm, contact 5 min): <2.0 log CPU/mL
- number of infectious viruses ([1]; pH 8.5, 100 ppm, contact 10 min): <2.0 log CPU/mL
- number of infectious viruses ([1]; pH 8.5, 200 ppm, contact 0 min): 4.7 ± 2.8 log CPU/mL
- number of infectious viruses ([1]; pH 8.5, 200 ppm, contact 1 min): 2.5 ± 2.3 log CPU/mL
- number of infectious viruses ([1]; pH 8.5, 200 ppm, contact 5 min): <2.0 log CPU/mL
- number of infectious viruses ([1]; pH 8.5, 200 ppm, contact 10 min): <2.0 log CPU/mL
- number of infectious viruses ([1]; pH 8.5, 400 ppm, contact 0 min): 4.7 ± 2.8 log CPU/mL
- number of infectious viruses ([1]; pH 8.5, 400 ppm, contact 1 min): <2.0 log CPU/mL
- number of infectious viruses ([1]; pH 8.5, 400 ppm, contact 5 min): <2.0 log CPU/mL
- number of infectious viruses ([1]; pH 8.5, 400 ppm, contact 10 min): <2.0 log CPU/mL
- number of infectious viruses ([1]; pH unadjusted, 25 ppm, contact 0 min): 6.4 ± 2.7 log CPU/mL
- number of infectious viruses ([1]; pH unadjusted, 25 ppm, contact 10 min): >10^6 log CPU/mL
- number of infectious viruses ([1]; pH unadjusted, 50 ppm, contact 0 min): 6.4 ± 2.7 log CPU/mL
- number of infectious viruses ([1]; pH unadjusted, 50 ppm, contact 1 min): 3.5 ± 2.1 log CPU/mL
- number of infectious viruses ([1]; pH unadjusted, 50 ppm, contact 5 min): 2.9 ± 2.7 log CPU/mL
- number of infectious viruses ([1]; pH unadjusted, 50 ppm, contact 10 min): <2.0 log CPU/mL
- number of infectious viruses ([1]; pH unadjusted, 100 ppm, contact 0 min): 6.4 ± 2.7 log CPU/mL
- number of infectious viruses ([1]; pH unadjusted, 100 ppm, contact 1 min): <2.0 log CPU/mL
- number of infectious viruses ([1]; pH unadjusted, 100 ppm, contact 5 min): <2.0 log CPU/mL
- number of infectious viruses ([1]; pH unadjusted, 100 ppm, contact 10 min): <2.0 log CPU/mL
- number of infectious viruses ([1]; pH unadjusted, 200 ppm, contact 0 min): 6.4 ± 2.7 log CPU/mL
- number of infectious viruses ([1]; pH unadjusted, 200 ppm, contact 1 min): <2.0 log CPU/mL
- number of infectious viruses ([1]; pH unadjusted, 200 ppm, contact 5 min): <2.0 log CPU/mL
- number of infectious viruses ([1]; pH unadjusted, 200 ppm, contact 10 min): <2.0 log CPU/mL
- number of infectious viruses ([1]; pH unadjusted, 400 ppm, contact 0 min): 6.4 ± 2.7 log CPU/mL
- number of infectious viruses ([1]; pH unadjusted, 400 ppm, contact 1 min): <2.0 log CPU/mL
- number of infectious viruses ([1]; pH unadjusted, 400 ppm, contact 5 min): <2.0 log CPU/mL
- number of infectious viruses ([1]; pH unadjusted, 400 ppm, contact 10 min): <2.0 log CPU/mL
- viruses inactivated to (detectable limit) ([2]; each pH from pH 5.5 to pH 8.8): < 10^−5
- ratio of the amount of residual infectious viruses ([2]; pH 5.5): <0.0002
- ratio of the amount of residual infectious viruses ([2]; pH 6.5): <0.0002
- ratio of the amount of residual infectious viruses ([2]; pH 7.5): <0.0002
- ratio of the amount of residual infectious viruses ([2]; pH 8.5): <0.0002
- concentration at which impairment in colony formation was observed (Vero cells): ≤ 5 ppm
